# Source: ChEMBL document CHEMBL3102800, “Discovery and optimization of N-(3-(1,3-dioxo-2,3-dihydro-1H-pyrrolo[3,4-c]pyridin-4-yloxy)phenyl)benzenesulfonamides as novel GPR119 agonists” (Bioorg Med Chem Lett, 2014)
# Tests used:
# [1] = Intrinsic clearance in rat liver microsomes; type: ADME; conditions: read-out: CLH
# [2] = Intrinsic clearance in human liver microsomes; type: ADME; conditions: read-out: CLH
# [3] = target: T1, Glucose-dependent insulinotropic receptor (Homo sapiens) (UniProt Q8TDV5); experiment: Agonist activity at human GPR119 expressed in HEK293 cells assessed as cAMP accumulation after 30 mins relative to isopropyl 4-(1-(4-(methylsulfonyl)phenyl)-1H-pyrazolo[3,4-d]pyrimidin-4-yloxy)piperidine-1-carboxylate; type: functional, cell-based
# T1 sequence (whole entry): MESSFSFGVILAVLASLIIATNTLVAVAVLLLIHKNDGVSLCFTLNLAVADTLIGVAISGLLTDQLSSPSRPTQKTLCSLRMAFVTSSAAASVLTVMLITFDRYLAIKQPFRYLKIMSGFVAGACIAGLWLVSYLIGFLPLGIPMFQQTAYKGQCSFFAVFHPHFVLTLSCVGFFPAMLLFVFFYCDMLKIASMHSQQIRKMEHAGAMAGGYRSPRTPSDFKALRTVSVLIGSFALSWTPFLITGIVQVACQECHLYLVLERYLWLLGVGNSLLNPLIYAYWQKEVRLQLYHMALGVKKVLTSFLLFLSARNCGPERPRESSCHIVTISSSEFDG
# [4] = target: T2, Glucose-dependent insulinotropic receptor (Homo sapiens, UniProt Q8TDV5); experiment: Agonist activity at human GPR119 expressed in HEK293 cells assessed as cAMP accumulation after 30 mins; type: functional, cell-based
# T2 sequence (Q8TDV5 whole entry): T1 sequence (whole entry)
# [5] = Half life in cynomolgus monkey at 0.5 mg/kg, iv; type: ADME, organism-based, Macaca fascicularis; set-up: dose 0.5 mg/kg, route intravenous; conditions: in vivo
# [6] = Oral bioavailability in rat at 2 mg/kg; type: ADME, organism-based; conditions: in vivo
# [7] = target: T3, Glucose-dependent insulinotropic receptor (Rattus norvegicus, UniProt Q7TQN8); experiment: Agonist activity at rat GPR119 assessed as cAMP accumulation; type: functional
# T3 sequence (Q7TQN8 whole entry): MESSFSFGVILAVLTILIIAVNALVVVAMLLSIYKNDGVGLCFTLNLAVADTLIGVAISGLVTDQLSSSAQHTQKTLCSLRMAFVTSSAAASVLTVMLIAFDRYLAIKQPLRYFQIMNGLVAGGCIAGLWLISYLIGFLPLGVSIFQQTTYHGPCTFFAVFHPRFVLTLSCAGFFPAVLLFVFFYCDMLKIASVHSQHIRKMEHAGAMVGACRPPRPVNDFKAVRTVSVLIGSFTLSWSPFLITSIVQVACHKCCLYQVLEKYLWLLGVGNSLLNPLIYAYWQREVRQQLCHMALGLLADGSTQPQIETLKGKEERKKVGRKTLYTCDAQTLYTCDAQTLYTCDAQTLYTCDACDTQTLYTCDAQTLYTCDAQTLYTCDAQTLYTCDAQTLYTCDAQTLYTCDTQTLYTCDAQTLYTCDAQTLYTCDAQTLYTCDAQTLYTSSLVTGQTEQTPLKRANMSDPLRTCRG
# [8] = Half life in rat at 0.5 mg/kg, iv; type: ADME, organism-based; set-up: dose 0.5 mg/kg, route intravenous; conditions: in vivo
# [9] = Intrinsic clearance in human liver microsomes at 1 uM after 30 mins; type: ADME; conditions: read-out: CLH
# [10] = Metabolic stability in human liver microsomes assessed as compound remaining at 1 uM after 30 mins; type: ADME; conditions: read-out: Stability
# [11] = Clearance in cynomolgus monkey at 0.5 mg/kg, iv; type: ADME, organism-based, Macaca fascicularis; set-up: dose 0.5 mg/kg, route intravenous; conditions: in vivo
# Bile salt export pump = Bile salt export pump (Homo sapiens, UniProt O95342); experiment: Binding affinity to BSEP (unknown origin)
# [12] = target: T4, Nuclear receptor subfamily 1 group I member 2 (Homo sapiens, UniProt O75469); experiment: Activation of human PXR
# T4 sequence (O75469 whole entry): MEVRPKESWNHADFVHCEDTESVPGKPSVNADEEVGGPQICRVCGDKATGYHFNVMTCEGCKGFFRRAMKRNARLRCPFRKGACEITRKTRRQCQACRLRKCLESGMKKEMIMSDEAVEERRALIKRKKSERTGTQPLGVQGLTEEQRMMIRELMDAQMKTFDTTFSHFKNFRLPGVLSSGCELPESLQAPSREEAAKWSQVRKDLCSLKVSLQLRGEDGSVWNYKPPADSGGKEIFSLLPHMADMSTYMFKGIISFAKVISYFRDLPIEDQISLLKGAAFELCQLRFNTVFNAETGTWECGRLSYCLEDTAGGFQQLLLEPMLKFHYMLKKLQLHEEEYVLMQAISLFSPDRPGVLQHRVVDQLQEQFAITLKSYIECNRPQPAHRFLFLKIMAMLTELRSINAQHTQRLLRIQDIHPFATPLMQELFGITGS
# [13] = Clearance in rat at 0.5 mg/kg, iv; type: ADME, organism-based; set-up: dose 0.5 mg/kg, route intravenous; conditions: in vivo
# [14] = Plasma protein binding in human; type: ADME, cell-free; conditions: read-out: PPB
# [15] = target: T5, G-protein coupled receptor 119 (Macaca fascicularis) (UniProt G7Q3P2); experiment: Agonist activity at cynomolgus monkey GPR119 assessed as cAMP accumulation relative to control; type: functional
# T5 sequence (whole entry): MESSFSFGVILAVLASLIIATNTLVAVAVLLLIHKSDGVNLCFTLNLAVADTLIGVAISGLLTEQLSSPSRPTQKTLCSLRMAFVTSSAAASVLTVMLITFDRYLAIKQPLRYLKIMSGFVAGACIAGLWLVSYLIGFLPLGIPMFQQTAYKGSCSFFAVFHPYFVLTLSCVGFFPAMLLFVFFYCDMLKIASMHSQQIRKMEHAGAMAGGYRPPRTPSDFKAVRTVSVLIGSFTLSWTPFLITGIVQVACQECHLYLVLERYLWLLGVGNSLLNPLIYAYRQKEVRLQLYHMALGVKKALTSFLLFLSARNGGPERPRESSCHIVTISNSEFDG
# [16] = Volume of distribution at steady state in rat at 0.5 mg/kg, iv; type: ADME, organism-based; set-up: dose 0.5 mg/kg, route intravenous; conditions: in vivo, read-out: Vdss
# [17] = target: T6, G-protein coupled receptor 119 (Macaca fascicularis, UniProt G7Q3P2); experiment: Agonist activity at cynomolgus monkey GPR119 assessed as cAMP accumulation; type: functional
# T6 sequence (G7Q3P2 whole entry): T5 sequence (whole entry)
# [18] = Oral bioavailability in cynomolgus monkey at 2 mg/kg; type: ADME, organism-based, Macaca fascicularis; conditions: in vivo
# [19] = Inhibition of Cytochrome P450 (unknown origin); type: ADME; conditions: human
# [20] = Volume of distribution at steady state in cynomolgus monkey at 0.5 mg/kg, iv; type: ADME, organism-based, Macaca fascicularis; set-up: dose 0.5 mg/kg, route intravenous; conditions: in vivo, read-out: Vdss
# [21] = Plasma protein binding in cynomolgus monkey; type: ADME, cell-free, Macaca fascicularis; conditions: read-out: PPB
# [22] = target: T7, Glucose-dependent insulinotropic receptor (Mus musculus, UniProt Q7TQP3); experiment: Agonist activity at mouse GPR119 assessed as cAMP accumulation; type: functional
# T7 sequence (Q7TQP3 whole entry): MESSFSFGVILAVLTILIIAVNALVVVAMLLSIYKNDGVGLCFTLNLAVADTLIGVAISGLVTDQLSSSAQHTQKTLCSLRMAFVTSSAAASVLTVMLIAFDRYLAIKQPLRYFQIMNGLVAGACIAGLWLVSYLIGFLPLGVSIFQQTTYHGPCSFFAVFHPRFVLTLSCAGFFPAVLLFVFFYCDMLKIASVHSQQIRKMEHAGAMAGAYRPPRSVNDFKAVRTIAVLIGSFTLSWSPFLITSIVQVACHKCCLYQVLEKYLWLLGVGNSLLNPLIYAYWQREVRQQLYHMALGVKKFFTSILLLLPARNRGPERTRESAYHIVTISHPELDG
# [23] = Metabolic stability in rat liver microsomes assessed as compound remaining at 1 uM after 30 mins; type: ADME; conditions: read-out: Stability
# [24] = Clearance in iv dosed rat; type: ADME, organism-based; conditions: in vivo
# Sequence of Bile salt export pump (O95342 whole entry): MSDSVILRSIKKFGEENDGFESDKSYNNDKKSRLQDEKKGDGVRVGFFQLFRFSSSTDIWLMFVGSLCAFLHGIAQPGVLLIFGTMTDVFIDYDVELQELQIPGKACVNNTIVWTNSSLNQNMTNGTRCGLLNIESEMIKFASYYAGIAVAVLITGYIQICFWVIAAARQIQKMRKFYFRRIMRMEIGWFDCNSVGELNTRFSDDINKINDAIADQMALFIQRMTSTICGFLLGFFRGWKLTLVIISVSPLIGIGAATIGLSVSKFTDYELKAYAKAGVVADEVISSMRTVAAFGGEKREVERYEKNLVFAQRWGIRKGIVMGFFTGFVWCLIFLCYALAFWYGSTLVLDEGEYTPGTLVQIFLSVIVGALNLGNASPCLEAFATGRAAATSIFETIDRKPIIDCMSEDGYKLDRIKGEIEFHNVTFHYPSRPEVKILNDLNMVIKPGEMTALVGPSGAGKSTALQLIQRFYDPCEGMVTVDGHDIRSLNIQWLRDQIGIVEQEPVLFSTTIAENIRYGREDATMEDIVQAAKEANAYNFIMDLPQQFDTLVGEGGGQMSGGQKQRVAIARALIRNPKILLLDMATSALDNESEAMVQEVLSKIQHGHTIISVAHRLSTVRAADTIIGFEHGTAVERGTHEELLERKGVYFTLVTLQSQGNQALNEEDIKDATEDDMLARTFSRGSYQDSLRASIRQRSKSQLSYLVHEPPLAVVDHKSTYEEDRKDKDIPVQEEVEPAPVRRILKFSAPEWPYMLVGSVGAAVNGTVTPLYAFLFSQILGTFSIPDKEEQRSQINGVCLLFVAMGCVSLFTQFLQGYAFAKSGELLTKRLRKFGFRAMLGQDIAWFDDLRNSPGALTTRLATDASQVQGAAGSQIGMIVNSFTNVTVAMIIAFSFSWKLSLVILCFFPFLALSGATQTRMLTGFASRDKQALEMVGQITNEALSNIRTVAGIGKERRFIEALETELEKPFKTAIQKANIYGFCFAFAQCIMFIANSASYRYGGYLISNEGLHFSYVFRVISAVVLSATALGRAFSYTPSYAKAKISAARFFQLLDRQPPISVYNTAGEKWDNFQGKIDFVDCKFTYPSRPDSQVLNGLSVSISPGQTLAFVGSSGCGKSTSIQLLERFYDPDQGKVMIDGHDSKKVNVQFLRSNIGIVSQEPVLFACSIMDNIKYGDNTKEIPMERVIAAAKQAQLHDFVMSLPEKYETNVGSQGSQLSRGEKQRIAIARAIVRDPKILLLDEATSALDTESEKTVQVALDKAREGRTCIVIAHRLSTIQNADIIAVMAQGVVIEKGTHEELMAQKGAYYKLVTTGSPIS
Structure (SMILES),microsomal CLint [1] [µL/min/mg],Efficacy [3] [%],EC50 [4] [nM],other results
Cc1cc2c(c(Oc3cccc(NS(=O)(=O)c4ccc(Cl)cc4)c3)n1)C(=O)N(c1ccccc1)C2=O,–,102,299,–
Cc1cc2c(c(Oc3cccc(NS(=O)(=O)c4ccc(Cl)cc4)c3)n1)C(=O)NC2=O,–,109,121,–
Cc1cc2c(c(Oc3cccc(NS(=O)(=O)c4ccc(Cl)cc4)c3)n1)C(=O)N(C1CCCC1)C2=O,–,95,69,–
Cc1cc2c(c(Sc3ccc(C)c(NS(=O)(=O)c4ccc(Cl)cc4)c3)n1)C(=O)N(C(C)C)C2=O,–,85,224,–
Cc1cc2c(c(Oc3cccc(S(=O)(=O)Nc4ccc(Cl)cc4)c3)n1)C(=O)N(C(C)C)C2=O,–,–,238,–
Cc1cc2c(c(Oc3ccc(C)c(NS(=O)(=O)c4ccc(Cl)cc4)c3)n1)C(=O)N(C(C)C)C2=O,131,–,9,–
Cc1cc2c(c(Oc3cccc(NS(=O)(=O)c4ccc(Cl)cc4)c3F)n1)C(=O)N(C(C)C)C2=O,–,–,493,–
CCN1C(=O)c2cc(C)nc(Oc3cccc(NS(=O)(=O)c4ccc(Cl)cc4)c3)c2C1=O,–,120,11,–
Cc1cc2c(c(Oc3cc(NS(=O)(=O)c4ccc(Cl)cc4)ccc3F)n1)C(=O)N(C(C)C)C2=O,84,–,16,"half-life [5]: 5.6 h; bioavailability [6]: 95%; EC50 [7]: 2050 nM; half-life [8]: 1.5 h; microsomal CLint at 1 µM [9]: 29 µL/min/mg; remaining at 0.5 h, 1 µM [10]: 88%; clearance [11]: 7.5 mL/min/kg; Activity (Bile salt export pump): Not Active; Activity [12]: Not Active; clearance [13]: 11.8 mL/min/kg; fraction unbound [14]: < 0.01; Efficacy [15]: 102%; Vd [16]: 1.5 L/kg; EC50 [17]: 73 nM; bioavailability [18]: 29%; inhibition (INH) [19]: Not Active; Vd [20]: 1.1 L/kg; fraction unbound [21]: < 0.01; EC50 [22]: 1900 nM"
Cc1cc2c(c(Oc3cccc(NC(=O)c4ccc(Cl)cc4)c3)n1)C(=O)N(C(C)C)C2=O,40,–,> 30000,–
Cc1cc2c(c(Oc3cccc(N(C)S(=O)(=O)c4ccc(Cl)cc4)c3)n1)C(=O)N(C(C)C)C2=O,> 400,–,11,–
Cc1cc2c(c(Nc3ccc(C)c(NS(=O)(=O)c4ccc(Cl)cc4)c3)n1)C(=O)N(C(C)C)C2=O,–,81,382,–
COc1cc2c(c(Oc3cccc(NS(=O)(=O)c4ccc(Cl)cc4)c3)n1)C(=O)N(C1CC1)C2=O,–,97,19,–

# Second part, led by results:
microsomal CLint [1] [µL/min/mg],Efficacy [3] [%],EC50 [4] [nM],Structure (SMILES),other results
63,99,45,O=C1c2cc(C3CC3)nc(Oc3cccc(NS(=O)(=O)c4ccc(Cl)cc4)c3)c2C(=O)N1C1CC1,microsomal CLint [2]: 27 µL/min/mg
–,–,41,CC(C)OC(=O)N1CCC(Oc2ncnc3c2cnn3-c2ccc(S(C)(=O)=O)cc2)CC1,–
–,111,15,Cc1cc2c(c(Oc3cccc(NS(=O)(=O)c4ccc(Cl)cc4)c3)n1)C(=O)N(C1CC1)C2=O,–
–,76,19,Cc1cc2c(c(Sc3cccc(NS(=O)(=O)c4ccc(Cl)cc4)c3)n1)C(=O)N(C(C)C)C2=O,–
250,99,13,Cc1cc2c(c(Oc3cccc(NS(=O)(=O)c4ccc(Cl)cc4)c3)n1)C(=O)N(C(C)C)C2=O,"remaining at 0.5 h, 1 µM [23]: 15%; clearance [24]: 80 mL/min/kg"
29,–,33,Cc1cc2c(c(Oc3cc(NS(=O)(=O)c4ccc(Cl)cc4)ccc3Cl)n1)C(=O)N(C(C)C)C2=O,clearance [24]: 3.67 mL/min/kg
–,122,23,Cc1cc2c(c(Oc3cccc(NS(=O)(=O)c4ccc(Cl)cc4)c3)n1)C(=O)N(C)C2=O,–
–,–,357,Cc1cc2c(c(Oc3cc(F)cc(NS(=O)(=O)c4ccc(Cl)cc4)c3)n1)C(=O)N(C(C)C)C2=O,–
